Earlier results, collected in patent US6338847B1, “Compositions and methods to disinfect contact lenses” (Allergan, priority 1993, dated 2002).

Test system: cyst form of acanthamoeba

Molecule | survival of cysts exposed to hydrogen peroxide (exposed for two hours) | time to killing all the cysts (lysozyme included in the hydrogen peroxide solution)
OO [hydrogen peroxide] | survived after two weeks | –
lysozyme (protein, UniProt P61626 19-148, looked up, cellulose and/or chitin decomposing enzyme component; a primary tear protein) Lysozyme C: KVFERCELARTLKRLGMDGYRGISLANWMCLAKWESGYNTRATNYNAGDRSTDYGIFQINSRYWCNDGKTPGAVNACHLSCSALLQDNIADAVACAKRVVRDPQGIRAWVAWRNRCQNRDVRQYVQGCGV | – | ≤ 30 min
